Data as given in patent US10420770B2, “Compositions and methods for treating dementia” (EIP Pharma, LLC, priority 2016, dated 2019).

Experiments:
Format in all cases: in vivo, human
[1] = Plasma pharmacokinetics, 12-week Phase IIa study (Example 1); details: 40 mg dose level, twice daily, 12-week study
Method: (§1) Investigators and patients were blind to the dosage strength. […] Patients were instructed to take doses within 30 minutes following a meal or snack, with each dose taken approximately 12 hours apart at the same times each day throughout the study.
Dosing started on Day 1 following completion of all baseline procedures. During the treatment period, subjects returned to the clinic on Days 14, 28, 56, and 84. […] Dynamic PET scanning with fill quantitative analysis was performed at baseline and at the end of treatment.
Sixteen subjects completed the full 12 weeks of treatment and all were included in safety analyses. […] In the PK analysis, due to the sparse sampling collection design, the time period from 0 to 24 hours post-dose was divided into 4 blocks in order to show the distribution of concentrations over time. […] Average blood concentration of about 8 ng/mL at the 40 mg dose level was observed. This is higher than the 5 ng/mL.

butylcholinesterase = assay: CSF butylcholinesterase, 6-week study; details: baseline to day 40
[2] = test system: brain-derived neurotrophic factor (BDNF); assay: Plasma BDNF levels by Somascan, 12-week study; details: baseline vs after 84 days; n=10 subjects
Method: FIG. 15 depicts plasma brain-derived neurotrophic, factor (BDNF) levels at baseline and after 84 days (n=10 subjects). BDNF levels were measured by Somascan®.

[3] = test system: patients with mild cognitive impairment (MCI) due to Alzheimer's disease (AD) or with mild AD; assay: Mini-Mental State Examination (MMSE), 12-week study (Example 1); details: for subjects with an increase from screening of at least 1 in MMSE score: Day 84 (Visit 7)
Source text: The MMSE is a questionnaire used extensively in clinical and research settings to measure mental function. It is commonly used to screen for dementia, and to assess the severity and progression of dementia. The MMSE is an effective way to document a human subject's response to treatment. The test examines functions including registration, attention and calculation, recall, language, ability to follow simple commands and orientation.
as §1

synaptic function = assay: Quantitative EEG, 6-week study
Method: Quantitative EEG was conducted as a measure of the effects of inflammatory cytokines on synaptic function and the effects of modulation of p38 MAPK on synaptic plasticity. Brain fluorodeoxyglucose (FDG) PET scan was conducted at the Screening Visit and Day 40 to measure brain metabolism. In addition, CSF drug levels of VX-745 were obtained to confirm delivery of drug to the brain.

[4] = test system: patients with mild cognitive impairment (MCI) due to Alzheimer's disease (AD) or with mild AD; assay: Wechsler Memory Scale (WMS) immediate and delayed recall, 12-week study (Example 1); details: for patients with improvement from baseline, WMS delayed recall composite score / patients with improvement from baseline, WMS immediate recall composite score: day 84
Method: In this study, episodic memory was evaluated using the Dutch version of the WMS scale utilizing both verbal and visual information: Logical Memory (LM I & II) test, in which subject is read a story; Verbal-Paired Associates (VPA I & II), in which subject is given pairs of words and asked remember which words go together; and Visual Reproduction (VR I & II)), in which subject is given drawings of specific shapes. Subjects were then asked to recall the information within each test both in an immediate (WMS-Immediate Recall composite) and delayed (WMS-Delayed Recall composite) basis. The total score of the WMS-Immediate Recall component could range from 0 to 136 (0-53 for LMI; 0-40 for VPA I, and 0-43 VR I) and for the WMS-Delayed Recall from 0 to 92 (0-39 for LM II; 0-10 for VPA II, and 0-43 VR II).
Further analysis included Wechsler Memory Scale (WMS) Analyses. The WMS includes three subcategories: immediate recall, delayed recall, and symbol span, each with distinct assessments. Results can be analyzed as two distinct composites scores or as an overall composite score. This evaluation included the overall (score range: 0 to 401), immediate recall (score range: 0 to 136), and delayed recall (score range: 0 to 92) composite scores; the latter two are considered measures of episodic memory. In addition, the Symbol Span sub-component of WMS was analyzed separately (score range: 0 to 50). In all cases, higher scores reflect better cognitive performance.

[5] = test system: amyloid-beta peptides (Aβ 38/40/42); assay: CSF amyloid-beta peptides, 6-week study; details: baseline to Day 41; p=0.01 to p=0.047
Method: Effects on CSF levels of Aβ peptides were evaluated as measures of the amyloidenic process, which is activated with aging and more so in patients with Alzheimer's disease.
Target engagement was assessed through the evaluation of the effect of drug treatment on CSF biomarkers. CSF was collected at 6 time-points over 24 hours at baseline (the 24 hours prior to first dose) and again at 6 time-points over 24 hours near the end of treatment on Day 40. The samples were evaluated by the Mesoscale Discovery ELISA platform for multiple cytokines ((IFN-γ, IL-1β, IL-2, IL-4, IL-5, IL-8, IL-12 protein 70, IL-13, TNFα, and CSF) and for amyloid-beta peptides (Aβ 38/40/42).

[6] = Example 1 study (N = 15), Wechsler Memory Scale

O=c1ncn2nc(Sc3ccc(F)cc3F)ccc2c1-c1c(Cl)cccc1Cl [VX-745]
Average blood concentration [1]: about 8 ng/mL | CSF levels of butylcholinesterase (butylcholinesterase): no change | plasma BDNF levels [2]: increases plasma BDNF levels | subjects with an increase from screening of at least 1 in MMSE score ([3]; 40 mg group): approximately 50% | patients with greater than a 3-point improvement in MMSE score over baseline ([3]; 40 mg group, FIG. 2): two of four | subjects with an increase from screening of at least 1 in MMSE score ([3]; 125 mg group): ~33% | EEG (synaptic function): potential positive pharmacodynamics effect | patients with improvement from baseline, WMS delayed recall composite score ([4]; 40 mg group): 8 of 8 | patients with improvement from baseline, WMS immediate recall composite score ([4]; 40 mg group): 7 of 8 | patients with improvement from baseline, WMS delayed recall composite score ([4]; 125 mg group): 6 of 7 | patients with improvement from baseline, WMS immediate recall composite score ([4]; 125 mg group): 6 of 7 | change in all subcomponents of WMS episodic memory composites ([4]; Day 84): statistically significant (P<0.05) increases | Mean WMS delayed recall composite score ([4]; Day 84, combined doses, baseline 13.2 (±2.3), p<0.001): 22.1 (±4.1) | Mean WMS immediate recall composite score ([4]; Day 84, n=15 combined doses, baseline 48.4 (±3.8), p=0.005): 58.4 (±4.3) | Calculated within-subject treatment effect size (Cohen's d), Delayed Recall [4, 6]: .69 | Calculated within-subject treatment effect size (Cohen's d), Immediate Recall [4, 6]: .59 | WMS immediate and delayed recall, cognitive analysis ([4]; nearly all patients, regardless of effect on amyloid plaque): dose dependent improvement | correlation between plasma drug concentration and increases in CSF Aβ 38/40/42 levels [5]: statistically significant correlation
